Data reported in patent US5700906A, “Immunogenic peptide antigen corresponding to plasmodium vivax circumsporozoite protein” (New York University, priority 1987, dated 1997).
Where two headings read alike, the source gives them in different places. Where no end group is shown, it is not given here.

Experiments:
[1] = tested on: monoclonal antibody 2F2; experiment: Inhibition of 2F2 binding to immobilized (DRADGQPAG)2 by synthetic peptides; conditions: competing peptide 25 micrograms/ml
Source text: (§1) Monoclonal-antibody 2F2 from Example 5 was serially diluted in PBS-BSA (indicated in FIG. 5 by black triangles); or in PBS-BSA containing 25 micrograins/ml of synthetic peptide (NANP)3 (indicated by open triangles); or in PBS-BSA containing 25 micrograms/ml of the synthetic peptide of Example 4, i.e. (DRADGQPAG)2 (indicated by black circles).
(§2) An unrelated monoclonal-antibody 2AlO (anti-falciparum CS protein) was serially diluted in PBS-BSA (indicated by open squares). […] of each dilution were delivered to the bottom of microtiter plates which had previously been coated with a synthetic peptide (DRADGQPAG)2 saturated with 1% BSA. After 1 hour of incubation, the wells were washed with PBS-BSA in 50 microliters of ^125 I-labelled affinity-purified goat anti-mouse IgG (10^5 cpm; specific activity about 2×10^6 cpm/microgram). After an additional hour of incubation, the wells were washed with PBS-BSA and counted.

[2] = tested on: binding of monoclonal antibody 2F2 to immobilized P. vivax sporozoite extract; experiment: Inhibition of the binding of labelled monoclonal antibody 2F2 to immobilized P. vivax extracts; conditions: at 0: 16,387 ± 1,085 cpm
Description: 100,000 cpm of 2F2 antibody labelled by ^125 I having a specific activity of about 2×10^6 cpm/microgram was diluted in PBS containing 1% BSA. The buffer also contained varying amounts of the synthetic peptide. The mixture was added to microtiter wells coated with P. vivax sporozoite extract. After one hour incubation in room temperature, the wells were washed three times with PBS containing 1% BSA and counted in the gamma counter.

[3] = tested on: anti-P. falciparum antibody 2AlO; experiment: Inhibition of binding of anti-P. falciparum antibody 2A10 to (NANP)3
Source text: as §1, §2
In other similar experiments, the binding of the anti-P. falciparum antibody 2AlO to the corresponding epitope (NANP)3 was not inhibited by the synthetic peptide (DRADGQPAG)2.^1

[4] = tested on: binding of a monoclonal antibody to extracts of sporozoites from a New Guinea vivax malaria; experiment: Competition of peptide with monoclonal antibody binding to New Guinea vivax sporozoite extracts; parameters: species or system P. vivax
Source text: Thus, although the P. vivax CS gene was isolated from a Brazilian strain of P. vivax, the epitope deduced from the sequence of the cloned gene appears to be present in all P. vivax CS proteins so far studied. The characterization of this gene and its encoded amino acid sequence allows synthesis of large amounts of the repetitive epitope and other antigenically active regions of the P. vivax CS protein and development of a protective vaccine using peptides corresponding to such regions.

[5] = tested on: porcine elastase; experiment: Elastase treatment of CS protein, reactivity with monoclonal antibodies; type: biochemical
Source text: (c) One possible reading frame coded for an alanine-rich peptide.

[6] = tested on: monoclonal antibody 2G3; experiment: Two-site immunoradiometric assay performed with monoclonal antibody 2G3 and synthetic peptides; type: binding
Description: The two synthetic peptides described in Example 7 were used in these studies. One of them was composed of the 12 amino acid sequence. H2 N-GlnAIaGlnGlyAspGlyAlaAsnAlaGlyGlnPro-COOH (12-MER) and the other was a dimer of the same sequence (24-MER). […] The assay was performed as follows:
Wells of microtiter plates (Falcon 3911) were incubated overnight at 4° C. with 50 μl of a 10 μg/ml solution in PBS of the monoclonal 2G3 anti-CS protein of P. knowlesi. The wells were washed with PBS and then incubated for 2 hours at room temperature, with PBS-Tween 20 (0.05% (w/v), and then for 3 additional hours with PBS-BSA (1% (w/v)). The synthetic peptides were diluted serially in PBS-BSA-Tween 20, and 30 μl aliquots of the dilutions were delivered to the bottom of individual wells. The plates were incubated overnight in the refrigerator, washed with PBS-BSA-Tween 20, and incubated with […] (10 ng) of ^125 I-labeled monoclonal antibody 2G3 diluted in PBS-BSA-Tween 20 (about 100,000 cpm). Controls consisted of plates coated with a non-relevant monoclonal antibody of the same isotype as 2G3.

[7] = tested on: binding of monoclonal antibody (2G3) to the CS protein of P. knowlesi; experiment: 12-MER inhibition of binding of monoclonal antibody 2G3 to the CS protein of P. knowlesi
Source text: Wells of microtiter plates were coated with the monoclonal antibody 2G3 washed with Tween-20, saturated with BSA as described supra. In one series of tubes, the 12-MER was serially diluted in PBS-BSA-Tween 20. In a second series of tubes, an extract of P. knowlesi sporozoites (prepared as described by Cochrane et al., supra) was serially diluted in PBS-BSA-Tween20. Aliquots of each dilution of sporozoites were mixed with equal volumes of all dilutions of 12-MER. 30 μI of these mixtures were then added to the bottom of the 2G3-coated wells. As positive and negative controls, 30 μl aliquots of sporozoite dilutions mixed with PBS-BSA-Tween 20 were added to other wells which had been precoated with 2G3 or with a non-relevant monoclonal antibody. After overnight incubation in the refrigerator, the wells were washed and 50 μl ([…]) of ^125 I-labeled 2G3 diluted in PBS-BSA-Tween 20 were added. Following an additional incubation at room temperature for 1 hour, the wells were washed and counted in a gamma counter.

**Q.** With “H-(Asp-Gly-Gln-Pro-Ala-Gly-Asp-Arg-Ala)2 [(DRADGQPAG)2]” as the substance, how does the “inhibition of binding of 2F2 to immobilized (DRADGQPAG)2” value [1] read?
**A.** totally inhibited

**Q.** And the “Bound 125I-labeled 2F2” value ([2]; synthetic peptide 0.2 micrograms/ml)?
**A.** 3,146 cpm

**Q.** What about the “Bound 125I-labeled 2F2” value ([2]; synthetic peptide 2 micrograms/ml) of the same substance?
**A.** 2,130 cpm

**Q.** And the “Bound 125I-labeled 2F2” value ([2]; synthetic peptide 20 micrograms/ml)?
**A.** 1,091 cpm

**Q.** And the “Bound 125I-labeled 2F2” value ([2]; synthetic peptide 200 micrograms/ml, mean of counts in four wells)?
**A.** 842 cpm

**Q.** And the “inhibition of binding of 2AlO to (NANP)3” value [3]?
**A.** not inhibited

**Q.** What about the “competition with binding of monoclonal antibody to sporozoite extracts” value [4] of the same substance?
**A.** can compete

**Q.** How did the “inactivation of CS protein by elastase in presence of inhibitor” value [5] turn out when OOC-Ala Ala Pro Ala was run?
**A.** reversed

**Q.** Which “two-site radioimmunoassay reactivity” value ([6]; monoclonal antibody to P. knowlesi CS protein) does the source give for “QAQGDGANAGQP [12-MER, H2 N-GlnAIaGlnGlyAspGlyAlaAsnAlaGlyGlnPro-COOH]” here?
**A.** did not bind

**Q.** What about the “Amount of radiolabeled 2G3 bound” value ([6]; peptide 5 ug/ml) of the same substance?
**A.** 40 cpm

**Q.** What about the “Amount of radiolabeled 2G3 bound” value ([6]; peptide 50 ug/ml) of the same substance?
**A.** 103 cpm

**Q.** And the “Amount of radiolabeled 2G3 bound” value ([6]; peptide 500 ug/ml)?
**A.** 157 cpm

**Q.** And the “Amount of radiolabeled 2G3 bound” value ([6]; peptide .5 ug/ml)?
**A.** 0 cpm

**Q.** And the “inhibition of interaction of P. knowlesi CS protein with monoclonal antibody” value [7]?
**A.** inhibited, in a dose-dependent fashion

**Q.** What about the “Amount of 2G3 bound in the presence of 12-MER inhibitor” value ([7]; 10^3 sporozoites/ml, 12-MER 0.08 mg/ml, 156 cpm at 0) of the same substance?
**A.** 72 cpm

**Q.** What about the “Amount of 2G3 bound in the presence of 12-MER inhibitor” value ([7]; 10^3 sporozoites/ml, 12-MER 0.6 mg/ml, 156 cpm at 0) of the same substance?
**A.** 0 cpm

**Q.** And the “Amount of 2G3 bound in the presence of 12-MER inhibitor” value ([7]; 10^3 sporozoites/ml, 12-MER 5.0 mg/ml, 156 cpm at 0)?
**A.** 37 cpm

**Q.** And the “Amount of 2G3 bound in the presence of 12-MER inhibitor” value ([7]; 10^4 sporozoites/ml, 12-MER 0.08 mg/ml, 1353 cpm at 0)?
**A.** 102 cpm

**Q.** What about the “Amount of 2G3 bound in the presence of 12-MER inhibitor” value ([7]; 10^4 sporozoites/ml, 12-MER 0.6 mg/ml, 1353 cpm at 0) of the same substance?
**A.** 70 cpm

**Q.** And the “Amount of 2G3 bound in the presence of 12-MER inhibitor” value ([7]; 10^4 sporozoites/ml, 12-MER 5.0 mg/ml, 1353 cpm at 0)?
**A.** 3 cpm

**Q.** And the “Amount of 2G3 bound in the presence of 12-MER inhibitor” value ([7]; 10^5 sporozoites/ml, 12-MER 0.08 mg/ml, 4390 cpm at 0)?
**A.** 1221 cpm

**Q.** And the “Amount of 2G3 bound in the presence of 12-MER inhibitor” value ([7]; 10^5 sporozoites/ml, 12-MER 0.6 mg/ml, 4390 cpm at 0)?
**A.** 781 cpm

**Q.** What about the “Amount of 2G3 bound in the presence of 12-MER inhibitor” value ([7]; 10^5 sporozoites/ml, 12-MER 5.0 mg/ml, 4390 cpm at 0) of the same substance?
**A.** 361 cpm

**Q.** And the “Amount of 2G3 bound in the presence of 12-MER inhibitor” value ([7]; 10^6 sporozoites/ml, 12-MER 0.08 mg/ml, 5582 cpm at 0)?
**A.** 3893 cpm

**Q.** And the “Amount of 2G3 bound in the presence of 12-MER inhibitor” value ([7]; 10^6 sporozoites/ml, 12-MER 0.6 mg/ml, 5582 cpm at 0)?
**A.** 3018 cpm

**Q.** And the “Amount of 2G3 bound in the presence of 12-MER inhibitor” value ([7]; 10^6 sporozoites/ml, 12-MER 5.0 mg/ml, 5582 cpm at 0)?
**A.** 1099 cpm

**Q.** What about the “inhibition of interaction of P. knowlesi CS protein with monoclonal antibody” value ([7]; listed as monomer) of the same substance?
**A.** compete with and specifically inhibit
